Measured values: ChEMBL document CHEMBL3046846, “Synthesis of N-Alkyl-2, 3-dimethyl-5-[N-(5-halo-2-methylphenyl)carbamoyl]-6-pyrazinecarboxamides and Their Herbicidal Activity” (J Pestic Sci, 1997)

Assays:
Veronica persica [1] = test: Herbicidal activity against Veronica persica at 500 g/ha after 2 weeks; format: functional
Galium spurium [2] = test: Herbicidal activity against Galium spurium var. echinospermon (Wally.) Hayek at 500 g/ha after 2 weeks; format: functional
Xanthium strumarium [3] = test: Herbicidal activity against Xanthium strumarium (cocklebur) 500 g/ha after 2 weeks; format: functional
Abutilon theophrasti [4] = test: Herbicidal activity against Abutilon theophrasti (velvetleaf) at 500 g/ha after 2 weeks; format: functional
Avena fatua [5] = test: Herbicidal activity against Avena fatua at 500 g/ha after 2 weeks; format: functional
Echinochloa crus-galli [6] = test: Herbicidal activity against Echinochloa crus-galli (barnyard grass) at 500 g/ha after 2 weeks; format: functional
Glycine max [7] = test: Herbicidal activity against Glycine max (soybean) at 500 g/ha after 2 weeks; format: organism-based; conditions: in vivo, 336 h
Triticum aestivum [8] = test: Herbicidal activity against Triticum aestivum (wheat) at 500 g/ha after 2 weeks; format: ADME, organism-based; conditions: in vivo, 336 h
Veronica persica [9] = test: Herbicidal activity against Veronica persica at 250 g/ha after 2 weeks; format: functional
Galium spurium [10] = test: Herbicidal activity against Galium spurium var. echinospermon (Wally.) Hayek at 250 g/ha after 2 weeks; format: functional
Xanthium strumarium [11] = test: Herbicidal activity against Xanthium strumarium (cocklebur) 250 g/ha after 2 weeks; format: functional
Abutilon theophrasti [12] = test: Herbicidal activity against Abutilon theophrasti (velvetleaf) at 250 g/ha after 2 weeks; format: functional
Echinochloa crus-galli [13] = test: Herbicidal activity against Echinochloa crus-galli (barnyard grass) at 250 g/ha after 2 weeks; format: functional
Avena fatua [14] = test: Herbicidal activity against Avena fatua at 250 g/ha after 2 weeks; format: functional
Glycine max [15] = test: Herbicidal activity against Glycine max (soybean) at 250 g/ha after 2 weeks; format: organism-based; conditions: in vivo, 336 h
Triticum aestivum [16] = test: Herbicidal activity against Triticum aestivum (wheat) at 250 g/ha after 2 weeks; format: organism-based; conditions: in vivo, 336 h
Veronica persica [17] = test: Herbicidal activity against Veronica persica at 5000 g/ha after 2 weeks; format: functional
Galium spurium [18] = test: Herbicidal activity against Galium spurium var. echinospermon (Wally.) Hayek at 5000 g/ha after 2 weeks; format: functional
Xanthium strumarium [19] = test: Herbicidal activity against Xanthium strumarium (cocklebur) 5000 g/ha after 2 weeks; format: functional
Abutilon theophrasti [20] = test: Herbicidal activity against Abutilon theophrasti (velvetleaf) at 5000 g/ha after 2 weeks; format: functional
Echinochloa crus-galli [21] = test: Herbicidal activity against Echinochloa crus-galli (barnyard grass) at 5000 g/ha after 2 weeks; format: functional
Avena fatua [22] = test: Herbicidal activity against Avena fatua at 5000 g/ha after 2 weeks; format: functional
Glycine max [23] = test: Herbicidal activity against Glycine max (soybean) at 5000 g/ha after 2 weeks; format: organism-based; conditions: in vivo, 336 h
Triticum aestivum [24] = test: Herbicidal activity against Triticum aestivum (wheat) at 5000 g/ha after 2 weeks; format: ADME, organism-based; conditions: in vivo, 336 h

Measured: Activity

Cc1ccc(Cl)cc1NC(=O)c1nc(C)c(C)nc1C(=O)NC(C)C
< 10%: Glycine max [7] | Triticum aestivum [8] | Glycine max [15] | Triticum aestivum [16] | Glycine max [23]
70%: Echinochloa crus-galli [21]
30%: Triticum aestivum [24]
95%: Veronica persica [1] | Veronica persica [17] | Galium spurium [18] | Xanthium strumarium [19] | Abutilon theophrasti [20]
50%: Xanthium strumarium [3] | Veronica persica [9] | Xanthium strumarium [11] | Avena fatua [22]
<10%: all other assays above

CCCCNC(=O)c1nc(C)c(C)nc1C(=O)Nc1cc(Cl)ccc1C
95%: Veronica persica [17] | Abutilon theophrasti [20]
50%: Veronica persica [1] | Xanthium strumarium [19] | Echinochloa crus-galli [21]
< 10%: Glycine max [7] | Triticum aestivum [8] | Glycine max [15] | Triticum aestivum [16] | Glycine max [23]
10%: Veronica persica [9]
30%: Galium spurium [18] | Triticum aestivum [24]
<10%: all other assays above

Cc1ccc(Cl)cc1NC(=O)c1nc(C)c(C)nc1C(=O)NCC(C)C
30%: Echinochloa crus-galli [6] | Veronica persica [9]
95%: Veronica persica [1] | Veronica persica [17] | Galium spurium [18] | Xanthium strumarium [19] | Abutilon theophrasti [20] | Echinochloa crus-galli [21] | Avena fatua [22]
< 10%: Glycine max [7] | Triticum aestivum [8] | Glycine max [15] | Triticum aestivum [16] | Glycine max [23]
70%: Triticum aestivum [24]
<10%: all other assays above

Cc1ccc(Cl)cc1NC(=O)c1nc(C)c(C)nc1C(=O)NC(C)(C)C
30%: Galium spurium [18]
70%: Veronica persica [1] | Echinochloa crus-galli [21]
< 10%: Glycine max [7] | Triticum aestivum [8] | Glycine max [15] | Triticum aestivum [16] | Glycine max [23]
10%: Veronica persica [9] | Triticum aestivum [24]
95%: Veronica persica [17] | Xanthium strumarium [19] | Abutilon theophrasti [20]
<10%: all other assays above

CCNC(=O)c1nc(C)c(C)nc1C(=O)Nc1cc(F)ccc1C
<10%: Galium spurium [18] | Echinochloa crus-galli [21]
10%: Avena fatua [22]
50%: Abutilon theophrasti [20]
95%: Veronica persica [17]
< 10%: Glycine max [23] | Triticum aestivum [24]
70%: Xanthium strumarium [19]

CNC(=O)c1nc(C)c(C)nc1C(=O)Nc1cc(F)ccc1C
<10%: Galium spurium [18] | Xanthium strumarium [19] | Abutilon theophrasti [20] | Echinochloa crus-galli [21] | Avena fatua [22]
< 10%: Glycine max [23] | Triticum aestivum [24]
50%: Veronica persica [17]

CC[C@@H](C)NC(=O)c1nc(C)c(C)nc1C(=O)Nc1cc(F)ccc1C
50%: Xanthium strumarium [3] | Triticum aestivum [24]
< 10%: Glycine max [7] | Triticum aestivum [8] | Glycine max [15] | Triticum aestivum [16] | Glycine max [23]
95%: Veronica persica [1] | Abutilon theophrasti [4] | Veronica persica [17] | Abutilon theophrasti [20]
70%: Galium spurium [18] | Xanthium strumarium [19]
<10%: Avena fatua [5] | Galium spurium [10] | Xanthium strumarium [11] | Echinochloa crus-galli [13] | Avena fatua [14]
30%: all other assays above

CCNC(=O)c1nc(C)c(C)nc1C(=O)Nc1cc(Cl)ccc1C
< 10%: Glycine max [7] | Triticum aestivum [8] | Glycine max [15] | Triticum aestivum [16] | Glycine max [23]
70%: Veronica persica [1]
50%: Echinochloa crus-galli [21]
30%: Galium spurium [18] | Abutilon theophrasti [20]
95%: Veronica persica [17] | Xanthium strumarium [19]
10%: Xanthium strumarium [3] | Triticum aestivum [24]
<10%: all other assays above

CCCNC(=O)c1nc(C)c(C)nc1C(=O)Nc1cc(Cl)ccc1C
50%: Xanthium strumarium [3] | Galium spurium [18] | Echinochloa crus-galli [21]
< 10%: Glycine max [7] | Triticum aestivum [8] | Glycine max [15] | Triticum aestivum [16] | Glycine max [23]
70%: Veronica persica [1]
95%: Veronica persica [9] | Veronica persica [17] | Abutilon theophrasti [20]
30%: Xanthium strumarium [19] | Triticum aestivum [24]
<10%: all other assays above

CNC(=O)c1nc(C)c(C)nc1C(=O)Nc1cc(Cl)ccc1C
95%: Veronica persica [17]
10%: Galium spurium [18] | Echinochloa crus-galli [21] | Triticum aestivum [24]
<10%: Xanthium strumarium [19] | Abutilon theophrasti [20] | Avena fatua [22]
< 10%: Glycine max [23]

CC[C@H](C)NC(=O)c1nc(C)c(C)nc1C(=O)Nc1cc(F)ccc1C
< 10%: Glycine max [7] | Triticum aestivum [8] | Glycine max [15] | Triticum aestivum [16] | Glycine max [23]
70%: Veronica persica [1] | Veronica persica [9] | Abutilon theophrasti [20] | Echinochloa crus-galli [21]
50%: Avena fatua [22]
95%: Veronica persica [17] | Galium spurium [18] | Xanthium strumarium [19]
30%: Triticum aestivum [24]
<10%: all other assays above

Cc1ccc(Cl)cc1NC(=O)c1nc(C)c(C)nc1C(=O)NCCC(C)C
70%: Echinochloa crus-galli [21]
30%: Xanthium strumarium [19] | Avena fatua [22]
< 10%: Glycine max [23] | Triticum aestivum [24]
95%: Veronica persica [17] | Abutilon theophrasti [20]
10%: Galium spurium [18]

CCCCCNC(=O)c1nc(C)c(C)nc1C(=O)Nc1cc(Cl)ccc1C
< 10%: Glycine max [23] | Triticum aestivum [24]
<10%: Veronica persica [17] | Galium spurium [18] | Xanthium strumarium [19] | Abutilon theophrasti [20] | Echinochloa crus-galli [21] | Avena fatua [22]

Cc1ccc(F)cc1NC(=O)c1nc(C)c(C)nc1C(=O)NCCC(C)C
< 10%: Glycine max [23]
10%: Triticum aestivum [24]
95%: Veronica persica [17] | Abutilon theophrasti [20]
<10%: Galium spurium [18] | Xanthium strumarium [19]
30%: Echinochloa crus-galli [21] | Avena fatua [22]

CCC(C)NC(=O)c1nc(C)c(C)nc1C(=O)Nc1cc(F)ccc1C (racemic)
<10%: Galium spurium [2] | Avena fatua [5] | Echinochloa crus-galli [6] | Galium spurium [10] | Xanthium strumarium [11] | Echinochloa crus-galli [13] | Avena fatua [14]
50%: Triticum aestivum [24]
< 10%: Glycine max [7] | Glycine max [15] | Triticum aestivum [16] | Glycine max [23]
30%: Triticum aestivum [8] | Echinochloa crus-galli [21] | Avena fatua [22]
not listed: Xanthium strumarium [3]
95%: all other assays above

CCCCCNC(=O)c1nc(C)c(C)nc1C(=O)Nc1cc(F)ccc1C
30%: Veronica persica [17] | Abutilon theophrasti [20] | Echinochloa crus-galli [21]
< 10%: Glycine max [23] | Triticum aestivum [24]
<10%: Galium spurium [18] | Xanthium strumarium [19] | Avena fatua [22]
